Two compounds from article PMC7356390, “Dehydrozingerone, a Curcumin Analog, as a Potential Anti-Prostate Cancer Inhibitor In Vitro and In Vivo” (Molecules, 2020) can be followed below.

The test system of one data set is PLS10 cells xenograft. Put plainly: In vivo antitumor activity, PLS10 cells xenograft model. The arrangement: species or system male BALB/c-nu/nu mice. Particulars: for Body Weights at the end of the experiment / Organ Weights, Kidneys / Organ Weights, Livers: mean ± S.E.; for Ki67-labeling index in tumor sections: control 63; for tumor volume: control 96 cm^3; for CD31-positive areas in tumors (angiogenesis): vs control, p < 0.05; for survival percentage of nude mice: male, BALB/c-nu/nu, mouse, in vivo, 5 weeks. On the procedure: Figure 4 DZG inhibited cell proliferation and angiogenesis in vivo using PLS10 cells xenograft model. Mice were subcutaneously injected with PLS10 cells and treated two times per week with Cur or DZG (30 mg/kg body weight) for a period of 5 weeks. Tumor volume was measured twice a week and at the end of the study (a). The tumor masses were collected, sectioned and analyzed by immunohistochemistry to detect the Ki67-labeling index (b), % TUNEL (Terminal deoxynucleotidyl transferase dUTP nick end labeling)-positive cells (c) and % of the vessel area (d). Data presented in bar diagrams represent the mean ± S.E of eight mice in the control and nine mice in the treatment groups. ** p < 0.01 vs. control (one-way ANOVA, Dunnett’s multiple comparisons test, tested groups vs. control group).
The in vivo antitumor activity of DZG or Cur was examined using five-week-old male BALB/c-nu/nu mice. Mice were randomly divided into 3 groups, with up to 8 or 9 mice per group. The PLS10 cells (5.0 × 10^5) were subcutaneously injected into each mouse. The treatments were initiated 2 days after PLS10 cells injections, at which point, mice received 50% DMSO in normal saline solution (NSS) (vehicle control) at 30 mg/kg body weight of Cur or DZG via i.p. injection two times a week for five weeks. The body weight of each mouse was measured twice a week during the experiment. At week 5 of the experiment, mice were euthanized, and primary tumors and organs, such as lungs, liver, kidneys and lymph nodes, were removed and fixed in 10% buffered formalin. The tumor volume of each mouse was measured and calculated according to the following formulation: 0.52 × (axis1 × axis2 × axis3). A section of the primary tumor, lung, liver, and kidney specimens were collected and fixed in 10% buffered formalin. Tissue sections of the primary tumors and organs were stained with H&E.
The paraffin-embedded samples were sectioned and stained with rabbit monoclonal anti-Ki67 (SP6; Acris Antibodies GmbH, Herford, Germany) and rabbit polyclonal anti-CD31 antibodies (Abcam, Cambridge, UK) and sequentially stained with an anti-rabbit secondary antibody and avidin-biotin complex. The binding complexes were then visualized with diamino-benzidine. Subsequently, the sections were then counterstained lightly with hematoxylin for microscopic examination. The number of Ki67-staining cells for a minimum of 1000 cells was counted to determine the labeling index. For quantitative analysis of the vessel area, CD31-positive areas per the total area section were determined under microscopy (BZ-9000).
The paraffin-embedded samples were sectioned, and the degree of apoptosis in the tumor tissue was determined using a TUNEL assay (In situ Apoptosis Detection Kit; Takara Bio Inc., Ohtsu, Japan). The TUNEL assay was performed according to the manufacturer’s instructions. The number of TUNEL-labeled cells in a minimum of 1000 cells was counted in order to establish the labeling index.

The subject of data set [1] is cyclin D1 expression in PLS10 cells. Put plainly: Western blot analysis of cyclin D1 expression. Type of data set: cell-based, rat. As to conditions: 48 h, p < 0.01 vs control. On the procedure: Cells were treated with Cur (0–20 μM) and DZG (0–200 μM) for 48 h. Cells were harvested for analysis of the cell cycle distribution by the Guava cycle (a,b), while cyclin D1 expression was determined by Western blot analysis (c,d). The level of protein expression was quantified by IMAGE J software. Data are presented as mean ± S.D. of three independent experiments. * p < 0.05 and ** p < 0.01 vs. control (one-way ANOVA, Dunnett’s multiple comparisons test, tested groups vs. control group). […]
Protein concentration was determined using the Bradford method (Thermo Fisher Scientific, Waltham, MA, USA). […]

[2] abbreviates: 30 mg/kg i.p. two times a week for five weeks.

As for `COc1cc(/C=C/C(=O)CC(=O)/C=C/c2ccc(O)c(OC)c2)ccc1O` [Cur, Curcumin], in the data set on PLS10 cells xenograft (setting [2]), the “Body Weights at the end of the experiment” value was 26.71 ± 1.26; the “Organ Weights, Kidneys” value turned out to be 0.40 ± 0.03; the “Organ Weights, Livers” value is reported as 1.67 ± 0.10; the “Ki67-labeling index in tumor sections” value turned out to be 62%. Also, in the data set on PLS10 cells xenograft (setting [2]), the tumor volume is given as 38 cm^3 and the “CD31-positive areas in tumors (angiogenesis)” value is given as “significantly reduced”. Moreover, the “survival percentage of nude mice” value in the data set with PLS10 cells xenograft stood at 100%. Further, in data set [1] (15 and 20 µM), the “cyclin D1 expression” value is “decreased”.

`COc1cc(/C=C/C(C)=O)ccc1O` [DZG, (E)-4-(4-hydroxy-3-methoxyphenyl)-but-3-en-2-one]: in the data set on PLS10 cells xenograft (setting [2]), the “Body Weights at the end of the experiment” value turned out to be 27.12 ± 1.00; the “Organ Weights, Kidneys” value is listed as 0.39 ± 0.03; the “Organ Weights, Livers” value worked out at 1.60 ± 0.09; the “Ki67-labeling index in tumor sections” value is listed as 59%. Further, in the data set on PLS10 cells xenograft (setting [2]), the tumor volume was found to be 24 cm^3 and the “CD31-positive areas in tumors (angiogenesis)” value was “significantly reduced”. Moreover, in the data set on PLS10 cells xenograft (30 mg/kg i.p. two times a week for five weeks, control 7%), the “apoptotic cells (TUNEL-positive) in tumor sections” value amounted to 10%. In the data set with PLS10 cells xenograft, the “survival percentage of nude mice” value stood at 100%. In addition, in data set [1] (150 and 200 µM), the “cyclin D1 expression” value is on record as “decreased”.
